Measured values as given in patent US20180085386A1, “URIDINE MONOPHOSPHATE AND TRIPHOSPHATE DERIVATIVES, COMPOSITIONS AND METHODS OF USE” (Tufts University, priority 2016, published 2018).
Like-named read-outs stand apart in the source and are kept apart here. Values belong to the compound of their own block, whether it stands above or below them.

How the values were obtained:
[1] = tested on: THP-1 cells; assay: Cytokine release from human THP-1 cells (multiplex analysis of culture medium); format: cell-based; details: 24 hours, vs vehicle
Procedure: THP-1 cells, a human cell line derived from monocytes, were treated in vitro with vehicle, the P2Y6 receptor antagonist MRS 2578, or compound 5, singly or in combination. THP-1 cells were seeded in 24 well plates at a density of 4×10^5 cells/well in culture medium for 24 hours. Thereafter, vehicle, compound 5, or MRS 2578 (singly or in combination) were added to the cultures for 24 hours. Subsequently the culture medium was aspirated and subjected to multiplex cytokine analysis. Data are presented as means+/−sem. MRS 2578 has a molecular weight of about 472 and is also described using CAS number 711019-86-2.

[2] = target: T1, P2Y6 receptor (Homo sapiens, UniProt Q15077); details: cited from earlier work
T1 sequence (Q15077 whole entry): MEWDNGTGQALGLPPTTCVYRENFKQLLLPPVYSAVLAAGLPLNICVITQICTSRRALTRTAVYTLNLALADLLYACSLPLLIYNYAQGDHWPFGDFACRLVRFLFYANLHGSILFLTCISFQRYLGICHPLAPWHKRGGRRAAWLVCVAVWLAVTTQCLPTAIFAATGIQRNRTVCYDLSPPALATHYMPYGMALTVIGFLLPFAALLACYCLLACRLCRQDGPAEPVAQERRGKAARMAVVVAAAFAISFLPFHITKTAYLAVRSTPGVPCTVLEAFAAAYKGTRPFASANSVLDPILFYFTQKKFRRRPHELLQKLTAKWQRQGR

[3] = tested on: PSAPP mice; assay: Tolerability of increased dose of PSB0474 in PSAPP mice; format: in vivo, mouse; details: 1000× increase in dose
[4] = tested on: PSAPP mice; assay: Plaque load in cortex and hippocampus by amyloid beta immunostaining; format: in vivo, mouse; details: for immunoreactivity of β1-40 in cortex: FIG. 2A; for immunoreactivity of β1-40 in hippocampus: FIG. 2B
Procedure: PSB0474 was systemically administered to PSAPP mice via intraperitoneal injection for 2, 4 and 6 consecutive days. In one group, prior to evaluation and following to administration for 6 consecutive days, treatment was suspended for two weeks (6+2 weeks group). Brains were then fixed and plaque load was evaluated by immunostaining with the amyloid beta specific antibodies: β1-40 and β1-42. Representative images of plaque load in cortex and hippocampus from animals that received injections of PSB0474 according to the foregoing injection schedules are shown in FIGS. 1(A)-(D). […] Whereas, when administration of PSB0474 was stopped for 2 weeks following six consecutive days of treatment (denoted as the 6+2 weeks group), β1-40 staining rebounded; although to a level lower than observed in mice treated with saline as a vehicle control. […] FIGS. 2C-2F depict data obtained following administration of different dosages of PSB0474.
To generate these graphs showing plaque load, mice were euthanized, brain sections cut and antibodies directed against Aβ42 were used to disclose Aβ plaques. Images were acquired digitally and an algorithm was applied to threshold the image so that plaques were isolated from the background. The algorithm then calculated the percent area of the field of view occupied by the plaques.
Brain samples were collected for Abeta analysis with immunostaining. Brains samples were collected after transcardial perfusion with phosphate buffer and 4% paraformaldehyde. Floating brain sections (40 micron) were collected using a microtome. Immunostaining for […] and Aβ42 were performed according to previously established protocol. Images with DAB staining were collected with brightfield microscopy and analyzed with ImageJ Macro. All data analysis and statistics were performed in GraphPad Prism 6.0.
(§1) In this study, treatment of PSAPP mice commenced when the mice were pre-symptomatic. Specifically, treatment was initiated when the mice were approximately 3 months old. PSAPP mice were treated for 100 days with daily, intraperitoneal injections of 10 μg/kg of compound 5 or vehicle. Following treatment, mice were assessed in a fear conditioning task for memory formation. Subsequently, plaque burden in the mice was also evaluated. The data provided in Examples 16 and 17 is for 19 vehicle treated mice and 22 compound treated mice. The data provided for the vehicle-treated group is the average across those mice, and error bars depict the standard error (SEM). Similarly, the data provided for the compound-treated group is the average across those mice, and the error bars depict the SEM.
as §1, with “assessed for the following: concentration of circulating pro-inflammatory cytokines; amyloid beta load (e.g., plaque burden); and memory” for “assessed”, “formation.” for “formation. Subsequently, plaque burden in the mice was also evaluated.”, “Example 18” for “Examples 16 and 17”, “18” for “19”, “20” for “22”, “SEM. Mice were first evaluated in the fear conditioning task experiment. Subsequently, plasma was taken for multiplex cytokine analysis of circulating levels of cytokine in the plasma. Finally, plaque burden was assessed in the cortex and hippocampus of the mice.” for “SEM.”
In this study, treatment of PSAPP mice commenced after the mice were already symptomatic. Specifically, treatment was initiated when the mice were approximately 6 months old. […]

[5] = target: T2, P2Y4 receptor (Homo sapiens, UniProt P51582); assay: Ca2+ mobilizing effect (fluo-4) in 1321N1 cells expressing P2Y4 receptor; format: cell-based
T2 construct: expressed in transfected cells; host or cells: 1321N1 human astrocytoma cells
T2 sequence (P51582 whole entry): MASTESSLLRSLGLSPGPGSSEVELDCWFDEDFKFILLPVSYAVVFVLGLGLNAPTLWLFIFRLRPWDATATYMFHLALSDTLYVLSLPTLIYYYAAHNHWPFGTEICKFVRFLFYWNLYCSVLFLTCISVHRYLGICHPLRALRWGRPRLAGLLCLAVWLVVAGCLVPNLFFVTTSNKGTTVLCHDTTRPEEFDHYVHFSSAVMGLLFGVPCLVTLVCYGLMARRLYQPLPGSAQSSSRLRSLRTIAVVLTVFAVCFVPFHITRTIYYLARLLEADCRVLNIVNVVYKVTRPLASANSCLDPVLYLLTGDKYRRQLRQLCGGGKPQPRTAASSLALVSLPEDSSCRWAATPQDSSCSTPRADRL
Procedure: (§2) Nucleoside disphosphate analogs of the foregoing compounds were tested for activation of P2Y6 receptor by measuring receptor induced Ca^2+ changes with the fluorescent Ca^2+ indicator fluo-4. 1321N1 human astrocytoma cell lines either expressing P2Y2, P2Y4 or P2Y6 receptors were plated into 24-well plates. Two days after plating, fluorometric measurements were made and responses of cells to a serial dilution of compound were determined. P2Y6 receptor mediated Ca^2+ fluorescent change was determined by normalized accumulation of fluorescent change of 3 timepoints after compound administration subtracted by value from ACSF control. Changes in fluorescent intensity were plotted corresponding to compound concentration in GraphPad. Dose-response curve and EC50 for each compound was estimated using nonlinear curve fit and Sigmoidal dose-response analysis. […]
(§3) Synthetic compounds were tested for activation of P2Y6 receptor by measuring receptor induced Ca^2+ changes with the fluorescent Ca^2+ indicator fluo-4, and results are shown in FIGS. 3(A)-(K). […] Two days after plating, fluorometric measurements were made and responses of cells to a serial dilution of compound were determined. P2Y6 receptor mediated Ca^2+ fluorescent change was determined by normalized accumulation of fluorescent change of 3 timepoints after compound administration subtracted by value from ACSF control. […]

[6] = target: T3, P2Y2 receptor (Homo sapiens, UniProt P41231); assay: Ca2+ mobilizing effect (fluo-4) in 1321N1 cells expressing P2Y2 receptor; format: cell-based
T3 construct: expressed in transfected cells; host or cells: 1321N1 human astrocytoma cells
T3 sequence (P41231 whole entry): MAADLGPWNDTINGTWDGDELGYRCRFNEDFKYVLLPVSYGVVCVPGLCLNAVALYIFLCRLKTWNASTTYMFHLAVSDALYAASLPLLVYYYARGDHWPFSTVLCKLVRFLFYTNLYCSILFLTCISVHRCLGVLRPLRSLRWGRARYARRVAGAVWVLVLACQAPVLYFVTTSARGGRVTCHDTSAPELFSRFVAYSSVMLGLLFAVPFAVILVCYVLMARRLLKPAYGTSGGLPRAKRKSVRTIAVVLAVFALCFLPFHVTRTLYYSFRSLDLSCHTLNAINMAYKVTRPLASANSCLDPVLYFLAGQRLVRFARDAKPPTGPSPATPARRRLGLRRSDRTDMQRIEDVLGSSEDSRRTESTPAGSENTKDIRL
Procedure: as §2, §3

[7] = target: T1, P2Y6 receptor; assay: Activation of P2Y6 receptor: receptor induced Ca2+ changes with fluo-4 in 1321N1 cells; format: cell-based; design: expressed in transfected cells; host or cells: 1321N1 human astrocytoma cells
Procedure: as §2, §3

SMILES: S=C=Nc1cccc(NC(=S)NCCCCNC(=S)Nc2cccc(N=C=S)c2)c1 [MRS 2578]
- release of fractalkine into culture media ([1]; FIG. 18A): increased
- release of PDGF-BB into culture media ([1]; FIG. 18B): increased
- release of IL-7 into culture media ([1]; MRS 2578 alone, FIG. 18C, FIG. 19): increased

SMILES: O=C(Cn1c(=O)ccn([C@@H]2O[C@H](COP(=O)(O)OP(=O)(O)O)[C@@H](O)[C@H]2O)c1=O)c1ccccc1 [3-phenacyl-UDP, reference compound]
- EC50 ([2]; P2Y6 receptor agonist): 70 nM
- selectivity for P2Y6 receptor [2]: > 500 fold
- detrimental effects to the animal [3]: did not cause detrimental effects
- β1-40 staining ([4]; 6 consecutive days, then stopped for 2 weeks (6+2 weeks group), still lower than saline control): rebounded
- effects on the efficacy endpoint (plaque load) ([4]; higher dose of 1 mg/kg, FIGS. 2C-2F): smaller effects
- immunoreactivity of β1-40 in cortex ([4]; i.p. for 4 consecutive days): significantly decreased
- immunoreactivity of β1-40 in hippocampus ([4]; i.p. for 4 consecutive days): significantly decreased
- immunoreactivity of β1-40 in cortex ([4]; i.p. for 6 consecutive days): significantly decreased
- immunoreactivity of β1-40 in hippocampus ([4]; i.p. for 6 consecutive days): significantly decreased

- elevating Ca^2+ levels in P2Y4 receptor expressing cells [5]: not effective
- elevating Ca^2+ levels in P2Y2 receptor expressing cells [6]: not effective
- EC50 ([7]; 1321N1 human astrocytoma cells expressing P2Y6, fluo-4 Ca2+ fluorescence): 12 nM
- ability to elevate Ca^2+ signals in P2Y6 receptor expressing cells ([7]; with addition of the P2Y6 antagonist MRS2578): attenuated
SMILES: O=c1ccn(C2OC(COP(=O)(O)OP(=O)(O)O)C(O)[C@@H]2O)c(=O)n1Cc1noc2ccccc12 (stereo partly shown)
